Laboratory results published in the supplement of paper PMC10307832.

Assays:
Assay in all cases: relative viability (nuclei count vs DMSO), 5 days (fraction); higher = more cells survive
[1] = compound: O=S(=O)(c1ccccc1)N(CC(F)(F)F)c1ccc(C(O)(C(F)(F)F)C(F)(F)F)cc1 + CS(=O)(=O)CCNCc1ccc(-c2ccc3ncnc(Nc4ccc(OCc5cccc(F)c5)c(Cl)c4)c3c2)o1 [Lapatinib] (partner 2 µM)
Outline: (§1)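 One day after seeding in 1536-well plates, lung cancer cell lines were dosed by pin tool. Dosing was either single-drug or a fixed anchor-drug dose plus five library-drug doses (not always all listed) in √10 steps. After 5 days, nuclei were stained in one fix-and-stain step and counted on 4× images, and relative viability is the nuclei count of treated wells over that of vehicle wells, given as the median of duplicate plates.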

RO-3306 + Decitabine = compound: C1=CC2=C(C=CC(=C2)C=C3C(=O)NC(=NCC4=CC=CS4)S3)N=C1 [RO-3306] + Nc1ncn([C@H]2C[C@H](O)[C@@H](CO)O2)c(=O)n1 [Decitabine] (partner 2 µM)
Outline: as §1

RO-3306 + Tozasertib = compound: C1=CC2=C(C=CC(=C2)C=C3C(=O)NC(=NCC4=CC=CS4)S3)N=C1 [RO-3306] + Cc1cc(Nc2cc(N3CCN(C)CC3)nc(Sc3ccc(NC(=O)C4CC4)cc3)n2)n[nH]1 [Tozasertib] (partner 0.1 µM)
Outline: as §1

RO-3306 + Phenformin = compound: C1=CC2=C(C=CC(=C2)C=C3C(=O)NC(=NCC4=CC=CS4)S3)N=C1 [RO-3306] + N=C(N)NC(=N)NCCc1ccccc1 [Phenformin] (partner 250 µM)
Outline: as §1

Cell Line | relative viability ([1]; first compound 0.8 µM) | relative viability ([1]; first compound 2.53 µM) | relative viability ([1]; first compound 8 µM) | relative viability (RO-3306 + Decitabine; first compound 0.01 µM) | relative viability (RO-3306 + Decitabine; first compound 0.03162 µM) | relative viability (RO-3306 + Decitabine; first compound 0.1 µM) | relative viability (RO-3306 + Decitabine; first compound 0.3162 µM) | relative viability (RO-3306 + Decitabine; first compound 1 µM) | relative viability (RO-3306 + Tozasertib; first compound 0.01 µM) | relative viability (RO-3306 + Tozasertib; first compound 0.03162 µM) | relative viability (RO-3306 + Tozasertib; first compound 0.1 µM) | relative viability (RO-3306 + Tozasertib; first compound 0.3162 µM) | relative viability (RO-3306 + Tozasertib; first compound 1 µM) | relative viability (RO-3306 + Phenformin; first compound 0.01 µM) | relative viability (RO-3306 + Phenformin; first compound 0.03162 µM) | relative viability (RO-3306 + Phenformin; first compound 0.1 µM) | relative viability (RO-3306 + Phenformin; first compound 0.3162 µM) | relative viability (RO-3306 + Phenformin; first compound 1 µM)
H3255 | 0.249 | 0.231 | 0.223 | 0.727 | 0.509 | 0.625 | 0.641 | 0.57 | 0.621 | 0.372 | 0.611 | 0.692 | 0.466 | 0.392 | 0.326 | 0.315 | 0.32 | 0.332
ABC-1 | 1.45 | 1.21 | 1.26 | 0.953 | 0.904 | 0.828 | 1.03 | 1.06 | 0.145 | 0.172 | 0.222 | 0.177 | 0.14 | 0.238 | 0.222 | 0.268 | 0.27 | 0.232
LXF-289 | 0.797 | 0.775 | 0.758 | 0.377 | 0.36 | 0.387 | 0.333 | 0.424 | 0.216 | 0.199 | 0.187 | 0.181 | 0.199 | 0.52 | 0.507 | 0.506 | 0.543 | 0.428
NCI-H1975 | 1.32 | 0.99 | 1.01 | 0.336 | 0.386 | 0.376 | 0.405 | 0.5 | 0.834 | 0.871 | 0.769 | 0.718 | 0.284 | 0.412 | 0.392 | 0.378 | 0.405 | 0.384
LCLC-97TM1 | 1.09 | 0.653 | 0.71 | 0.203 | 0.223 | 0.196 | 0.229 | 0.266 | 0.224 | 0.22 | 0.175 | 0.205 | 0.172 | 0.395 | 0.442 | 0.45 | 0.455 | 0.472
IA-LM | 0.903 | 0.68 | 0.752 | – | – | – | – | – | – | – | – | – | – | – | – | – | – | –
HCC-15 | 0.933 | 0.866 | 0.748 | 0.606 | 0.547 | 0.563 | 0.662 | 0.552 | 0.438 | 0.342 | 0.345 | 0.383 | 0.301 | 0.519 | 0.333 | 0.459 | 0.464 | 0.423
NCI-H647 | 1.52 | 1.17 | 1.2 | 0.479 | 0.336 | 0.417 | 0.429 | 0.405 | 0.333 | 0.0513 | 0.304 | 0.269 | 0.158 | 0.682 | 0.304 | 0.449 | 0.582 | 0.392
NCI-H1993 | 0.813 | 0.613 | 0.849 | 0.616 | 0.493 | 0.486 | 0.575 | 0.657 | 0.649 | 0.582 | 0.558 | 0.573 | 0.605 | 0.483 | 0.552 | 0.503 | 0.517 | 0.499
COR-L23 | 1.24 | 0.872 | 0.913 | 0.342 | 0.405 | 0.487 | 0.446 | 0.394 | 0.238 | 0.175 | 0.178 | 0.169 | 0.166 | 0.475 | 0.391 | 0.455 | 0.409 | 0.435
NCI-H1915 | 1.05 | 0.995 | 1.02 | 0.245 | 0.262 | 0.252 | 0.239 | 0.251 | 0.498 | 0.406 | 0.416 | 0.394 | 0.427 | 0.405 | 0.31 | 0.358 | 0.348 | 0.377
NCI-H1703 | 1.21 | 0.749 | 0.906 | – | – | – | – | – | – | – | – | – | – | – | – | – | – | –
NCI-H727 | 0.844 | 0.646 | 0.738 | 0.834 | 0.751 | 0.891 | 0.888 | 0.846 | 0.706 | 0.644 | 0.498 | 0.613 | 0.573 | 0.535 | – | 0.502 | 0.458 | 0.576
LC-2-ad | 1.04 | 0.876 | 0.99 | 0.869 | 0.776 | 0.743 | 0.785 | 0.759 | 0.433 | 0.404 | 0.44 | 0.485 | 0.404 | 0.538 | 0.476 | 0.492 | 0.614 | 0.562
NCI-H2009 | 0.922 | 0.804 | 0.844 | 0.385 | 0.373 | 0.351 | 0.382 | 0.371 | 0.816 | 0.707 | 0.722 | 0.671 | 0.707 | 0.52 | 0.455 | 0.49 | 0.483 | 0.494
A-427 | 1.04 | 0.919 | 1.1 | 0.615 | 0.545 | 0.543 | 0.572 | 0.568 | 0.173 | 0.181 | 0.166 | 0.173 | 0.235 | 0.339 | 0.241 | 0.312 | 0.295 | 0.243
SK-MES-1 | 0.442 | 0.424 | 0.514 | 0.341 | 0.406 | 0.327 | 0.352 | 0.371 | 1.02 | 1 | 1.01 | 0.807 | 0.585 | 0.73 | 0.605 | 0.711 | 0.621 | 0.625
NCI-H1734 | 1.24 | 1.13 | 0.934 | 0.621 | 0.471 | 0.471 | 0.566 | 0.502 | 0.233 | 0.256 | 0.247 | 0.304 | 0.274 | 0.355 | 0.276 | 0.344 | 0.409 | 0.368
LOU-NH91 | 0.859 | 0.832 | 0.854 | 0.829 | 0.787 | 0.796 | 0.823 | 0.79 | 0.667 | 0.63 | 0.669 | 0.638 | 0.561 | 0.808 | 0.709 | 0.681 | 0.649 | 0.694
